According to US10024868B2, “Identification, optimization and use of shared HLA-B*0702 epitopes for immunotherapy” (Vaxon Biotech, priority 2009, dated 2018):

Tests used:
HLA-B*0702 = biological target: T1, HLA-B*0702 (Homo sapiens, UniProt P01889); experiment: Measurement of peptide relative affinity to HLA-B*0702 (T2-B7 cells, ME-1 mAb staining); format: binding; conditions: for RA (Relative Affinity to HLA-B*0702): concentration inducing 20% of HLA-B*0702 expression relative to reference peptide CMV265-274, T2-B7 cells, 16 hours, 37° C.
T1 construct: expressed in transfected cells; host or cells: human T2-B7 cells (T2 transfected with HLA-B*0702)
Method: Measurement of Peptide Relative Affinity to HLA-B*0702.
The protocol used has been described previously (Rohrlich et al., 2003). Briefly, T2-B7 cells were incubated at 37° C. for 16 hours with peptides concentrations ranging from 100 μM to 0.1 μM, and then stained with ME-1 monoclonal antibody (mAb) to quantify the surface expression of HLA-B*0702. For each peptide concentration, the HLA-B*0702 specific staining was calculated as the percentage of staining obtained with 100 μM of the reference peptide CMV265-274 (R10V; RPHERNGFTV, SEQ ID NO: 172). The relative affinity (RA) was determined as: RA=(Concentration of each peptide that induces 20% of HLA-B*0702-expression/Concentration of the reference peptide that induces 20% of HLA-B*0702 expression).

[1] = tested on: T2-B7 targets loaded with peptide; experiment: CTL induction in vivo in HLA-B*0702 transgenic mice, Cr51 cytotoxic assay; conditions: for Immunogenicity: X mice developed a specific response for a total of Y mice vaccinated, 100 μg peptide subcutaneously in IFA; for Native peptide cross recognition, MAGE-A A / Native peptide cross recognition, MAGE-A I / Native peptide cross recognition, MAGE-A V: X/Y mice; for Native peptide cross recognition, MAGE-A A: CTL tested against T2-B7 targets loaded with native peptide MAGE-A A; for Native peptide cross recognition, MAGE-A I: CTL tested against T2-B7 targets loaded with native peptide MAGE-A I; for Native peptide cross recognition, MAGE-A V: CTL tested against T2-B7 targets loaded with native peptide MAGE-A V; for Cross recognition of the native peptides by induced CTLs (in words): target cells loaded with native cryptic peptides; for Immunogenicity (in words): vaccinated HLA-B*0702 transgenic mice
Method: The HLA-B7 H-2 class-I knockout mice were previously described (Rohrlich et al., 2003).
CTL Induction In Vivo in HLA-B*0702 Transgenic Mice.
Mice were injected subcutaneously with 100 μg of peptide emulsified in Incomplete Freund's Adjuvant (IFA) in the presence of 150 μg of the I-A^b restricted HBVcore128 T helper epitope (TPPAYRPPNAPIL, SEQ ID NO: 173). After 11 days, 5×10^7 spleen cells were stimulated in vitro with peptide (10 μM). On day 6 of culture, the bulk responder populations were tested for specific cytotoxicity.
Targets were labelled with 100 μCi of Cr^51 for 60 min, plated in 96-well V-bottomed plates (3×10^3 cell/well in 100 μL of RPMI 1640 medium) and, when necessary, pulsed with peptides (1 μM) at 37° C. for 2 hours. Effectors were then added in the wells and incubated at 37° C. for 4 hours. Percentage of specific lysis was determined as: % Lysis=(Experimental Release−Spontaneous Release)/(Maximal Release−Spontaneous Release)×100.

Sequence	Binding to HLA-B*0702 molecules (in words) (HLA-B*0702)	RA (Relative Affinity to HLA-B*0702) (HLA-B*0702)	Immunogenicity [1]	Native peptide cross recognition, MAGE-A A [1]	Native peptide cross recognition, MAGE-A I [1]	Native peptide cross recognition, MAGE-A V [1]	Cross recognition of the native peptides by induced CTLs (in words) [1]	Immunogenicity (in words) [1]
APRALVETL (MAGE-A A1L9 peptide)	able to bind to MHC	+ ((+) 5 < RA < 10)	6/11	MAGE-A A (1/8)	MAGE-A I (0/3)	MAGE-A V (0/3)	not able to cross-recognize the native peptides	immunogenic
GPRALAETS (HLA-B7 restricted native peptide) [MAGE-A A]		− ((−) means RA > 10)						
GPRALIETS (HLA-B7 restricted native peptide) [MAGE-A I]		− ((−) means RA > 10)						
GPRALVETL (HLA-B7 restricted optimized peptide) [MAGE-A L9]			18/18	MAGE-A A (3/8)	MAGE-A I (3/5)	MAGE-A V (4/5)	able to recognize a target cell loaded with each of the native cryptic peptides	strongly immunogenic
GPRALVETS (HLA-B7 restricted native peptide) [MAGE-A V]		− ((−) means RA > 10)						
